Data published in PubChem BioAssay AID463203 (Broad Institute, 2010).
The source made the active and inactive calls.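 Rule for the calls: active = more than half of replicate measurements showing over 20% loss of kinase signal relative to plate controls; inconclusive = some but at most half of replicates over 20% loss; inactive = no replicate over 20% signal loss.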

Target: Glycogen synthase kinase-3 alpha (Homo sapiens) (UniProt P49840)
Test: concentration-response blocking of human GSK3A – biochemical, luminescence, cell-free homogeneous, retest, dose response (AID 463203)
Settings: GSK-3 alpha enzyme, ADP-Glo luminescence, 60 min

Glycogen synthase kinase-3 alpha (Homo sapiens), sequence (P49840 whole entry, looked up): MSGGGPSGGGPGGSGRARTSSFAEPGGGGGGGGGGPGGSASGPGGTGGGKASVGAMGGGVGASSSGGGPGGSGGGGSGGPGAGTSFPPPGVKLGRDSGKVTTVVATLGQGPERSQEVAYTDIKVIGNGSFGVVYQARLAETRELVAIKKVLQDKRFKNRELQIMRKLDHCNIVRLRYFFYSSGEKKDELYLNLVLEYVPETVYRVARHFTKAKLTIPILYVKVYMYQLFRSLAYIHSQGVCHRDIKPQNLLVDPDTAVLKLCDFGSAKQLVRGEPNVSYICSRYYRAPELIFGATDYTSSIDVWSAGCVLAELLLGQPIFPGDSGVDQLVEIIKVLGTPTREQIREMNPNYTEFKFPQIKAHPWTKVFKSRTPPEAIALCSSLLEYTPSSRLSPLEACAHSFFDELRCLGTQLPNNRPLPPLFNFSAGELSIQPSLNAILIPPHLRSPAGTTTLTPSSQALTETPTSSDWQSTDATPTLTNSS

AC50 | Structure (SMILES)
> 30 µM (inactive) | CCOC(=O)c1cc(-c2ccc(C)cc2)n(CCC(=O)NC(C)CC)c1C (configuration not stated)
> 30 µM (inactive) | Cc1cc(C)c[n+](C2=C([O-])c3ccccc3C(=O)/C2=N\S(=O)(=O)c2cccs2)c1
5.52 µM | Cc1cccc(N=c2oc3cc(O)ccc3cc2C(N)=O)c1
10.9 µM | CCC(C)Nc1nc(N)c([N+](=O)[O-])c(N2CCCCCC2)n1 (configuration not stated)
> 30 µM (inactive) | CC(=O)Nc1cccc(-c2csc(Nc3ccc(C)cn3)n2)c1
9.3 µM | O=C(O)c1ccc(Nc2nc(-c3cccnc3)nc3ccccc23)cc1
> 30 µM (inactive) | Cc1nc(SCC(=O)N(CC(C)C)C2CCS(=O)(=O)C2)c2ccccc2n1 (configuration not stated)
> 30 µM (inactive) | Cc1cccc(C(=O)OCC(=O)Nc2c(C)n(C)n(-c3ccccc3)c2=O)c1
> 30 µM (inactive) | COc1ccccc1N1CCN(C(=O)c2cc(-c3ccccc3)on2)CC1
11.1 µM | COc1cccc(NC(=O)c2nnn(Cc3ccc(Br)cc3F)c2N)c1
> 30 µM (inactive) | Cc1nc(Nc2ccc(S(N)(=O)=O)cc2)oc1C
> 30 µM (inactive) | COC(=O)c1c(NC(=O)COC(=O)c2ccccn2)sc(C)c1C
> 30 µM (inactive) | CCOC(=O)c1cnn(C)c1NC(=O)c1ccc(Cl)cc1Cl
13.7 µM | Cc1nnc(SCC(=O)Nc2ccc(Br)cn2)[nH]c1=O
6.77 µM | CNS(=O)(=O)c1cccc(C(=O)OCC(=O)Nc2ccc(Cl)cn2)c1
> 30 µM (inactive) | Cc1cc(C)c2[nH]c(O)c(N=Nc3ccc(C(=O)O)cc3)c2c1
> 30 µM (inactive) | Cc1ccc(-c2c3c(=O)n(C)c(=O)n(C)c3cn2Cc2ccccn2)cc1
16.1 µM | O=C(c1ccc(Cn2cnnn2)cc1)N1CCCC(Nc2ccc(F)c(F)c2)C1 (configuration not stated)
> 30 µM (inactive) | Cc1c(C(=O)N2CCOCC2)oc2ccc(S(=O)(=O)N3CCCCCC3)cc12
> 30 µM (inactive) | C/C(=N\NC(=O)CSc1nc(C)[nH]c1[N+](=O)[O-])c1ccc(F)cc1
28.2 µM | Cc1sc2ncnc(N3CCC(C(=O)Nc4ccc(S(N)(=O)=O)cc4)CC3)c2c1C
4.6 µM | CN1CCN(c2ccccc2NC(=O)c2ccc(-c3ccccc3[N+](=O)[O-])o2)CC1
4.79 µM | O=C(COC(=O)c1cc([N+](=O)[O-])ccc1N1CCOCC1)Nc1ccc(Cl)cn1
> 30 µM (inactive) | CCOC(=O)c1nnn(-c2nonc2OC)c1-c1ccccc1
1.94 µM | CS(=O)(=O)N1CCN(c2ccccc2NC(=O)c2ccc(Br)o2)CC1
> 30 µM (inactive) | CCOc1ccc2nc(NC(=O)CSc3ccccc3)sc2c1
> 30 µM (inactive) | CC(=O)Nc1ccc(C2(c3ccc(NC(C)=O)cc3)NC(=O)c3ccccc32)cc1
> 30 µM (inactive) | O=[N+]([O-])c1ccc(O)c(CN2CCCCCC2)c1
23.6 µM | COc1ccc(SCCN2CC[C@@H](C(C)(C)C)CCC2=O)cc1
> 30 µM (inactive) | CC(C)c1c(C(=O)N/N=C/c2ccsc2)nnn1-c1nonc1N

Continued, molecule first:

Structure (SMILES) | AC50
FC(F)(F)c1nnc2n1N=C(c1cccs1)CS2 | > 30 µM (inactive)
O=C1CCCC2=C1C(c1ccc(Br)cc1)c1c([nH]c(=S)[nH]c1=O)N2 (configuration not stated) | > 30 µM (inactive)
O=P(COCCOCP(=O)(c1ccccc1)c1ccccc1)(c1ccccc1)c1ccccc1 | > 30 µM (inactive)
Cc1ccnc(NC(=O)CCC(=O)N(CC(=O)NCc2ccccc2)Cc2ccccc2)c1 | 15.1 µM
COc1cccc2cc(C(=O)NCc3ccco3)c(=O)oc12 | > 30 µM (inactive)
O=c1cc(-c2ccncc2)oc2c1ccc1ccccc12 | 0.312 µM
N#C/C(=N\Nc1cccc(F)c1)C(=O)C1CC1 | > 30 µM (inactive)
O=C(COc1ccccc1F)NC1CC1 | > 30 µM (inactive)
CC1=[N+](C)c2ccc3ccccc3c2C1(C)C | > 30 µM (inactive)
Cc1cc(C(C#N)c2ccccc2)n2ncnc2n1 (configuration not stated) | 3.35 µM
Cc1ccc2nc(-c3ccccc3N)[nH]c2c1 | > 30 µM (inactive)
CCC(Sc1ccc2nnc(-c3cccnc3)n2n1)C(=O)O (configuration not stated) | > 30 µM (inactive)
COC(=O)c1cn(C(=O)c2ccc(Cl)cc2)c2ccccc12 | > 30 µM (inactive)
O=C1C2C3c4ccccc4C(c4ccccc43)C2C(=O)N1Cc1cccnc1 (configuration not stated) | > 30 µM (inactive)
Cc1cn(C2OC(CC(=O)Oc3ccccc3)C(O)C2O)c(=O)[nH]c1=O (configuration not stated) | 19.1 µM
Cc1ccc(-c2noc(CSc3nnnn3-c3ccccc3)n2)cc1 | > 30 µM (inactive)
S=C(Nc1ccccc1)Nc1ccc2cn[nH]c2c1 | 24.9 µM
COc1ccccc1-c1noc(CSc2nc(C)cc(=O)[nH]2)n1 | > 30 µM (inactive)
COc1ccc(C(=O)NNC(=O)c2ccccn2)cc1 | 11.8 µM
O=c1[nH]ncc(N/N=C\c2ccncc2)c1Cl | 25.4 µM
CC1CCCCC1NC(=O)C(=O)NCC1CCCO1 (configuration not stated) | > 30 µM (inactive)
COc1ccccc1-c1noc(CSc2nc(N)cc(=O)[nH]2)n1 | > 30 µM (inactive)
